The source of these data is patent US4645769A, “1-oxa-1-dethia-cephalosporin compounds and antibacterial agent comprising the same” (Merck & Co., Inc., priority 1985, dated 1987).

In data set [1] the test system is Staphylococcus aureus 209 P JC-1. The experiment in a line: Minimum Inhibitory Concentration (MIC), antibacterial spectrum in vitro. In kind it is cell-based.
Data set [2] deals with Streptococcus faecalis ATCC 8043. The description is as above. The data set is classed as cell-based. The conditions noted are these: Enterococcus faecalis.
Data set [3] deals with Esherichia coli NIHJ JC-2. The data set is described as above. The data set is classed as cell-based.
For data set [4], the system named is Klebsiella pneumoniae PCI 602. The description is as above. In kind it is cell-based.
For data set [5], the system named is Salmonella typhimurium LT-2. The description is as above. In kind it is cell-based. The conditions noted are these: Salmonella enterica, read-out: Minimum Inhibitory Concentration (MIC).
Data set [6] relates to Proteus morganii 1510. Described as above. In kind it is cell-based.
Data set [7] has as its system Citrobacter freundii GN-346. The data set is described as above. In kind it is cell-based.
The subject of data set [8] is Pseudomonas aeruginosa MB-3833. The data set is described as above. In kind it is cell-based.
The test system of data set [9] is Pseudomonas aeruginosa E-2. The description is as above. The data set is classed as cell-based.
Data set [10] relates to Staphylococus aureus (Smith I). The experiment in a line: Efficacy in Mice Infected with Staphylococus aureus (Smith I). In kind it is in vivo. The note with it: Staphylococcus aureus, sc, 168 h, St. aureus (Smith I) intraperitoneal infection, single subcutaneous dose one hour after infection, 7 days. From the text:
(§1) A systemic infection was produced by intraperitoneal injection of the appropriate pathogen to mice (five male mice in each group, average body weight 20 g), and the mice were received single subcutaneous dose of the compound one hour after the infection.

In data set [11] the test system is Pseudomonas aeruginosa (GN 10362). The experiment in a line: Efficacy in Mice Infected with Pseudomonas aeruginosa (GN 10362). The data set is classed as in vivo. The note with it: GN10362, sc, 168 h.
Excerpt: as §1

Data set [12] concerns Esherichia coli TEM DC-2. The experiment in a line: Minimum Inhibitory Concentration (MIC), antibacterial spectrum in vitro. In kind it is cell-based. The conditions noted are these: read-out: Minimum Inhibitory Concentration (MIC).
Data set [13] deals with Enterobacter cloacae P99. Described as above. The conditions noted are these: P99, read-out: Minimum Inhibitory Concentration (MIC). In kind it is cell-based.
Data set [14] relates to Pseudomonas aeruginosa RPL-11. Described as above. The data set is classed as cell-based.
A short description of data set [15]: Concentration in Blood Serum after subcutaneous dosing (bioassay using Escherichia coli). In kind it is in vivo. The note with it: mouse, sc, 25 mg/Kg subcutaneously, mice; for concentration at 0.5 h: 1/2 hour; for concentration at 0.25 h: 1/4 hour; for concentration at 5 min: 1/12 hour. The method, then: The concentration of the compound in the serum was determined by bioassay using Escherichia coli as assay microorganism.

In data set [16] the test system is Pseudomonas aeruginosa. Description: Antibacterial activity against Pseudomonas aeruginosa (from Table 1). The note with it: in words. The data set is classed as cell-based.
[17] abbreviates: 209PJC1, Staphylococcus aureus 209 P JC-1, read-out: Minimum Inhibitory Concentration (MIC).
Setting [18] is: ATCC8043, Streptococcus faecalis ATCC 8043, read-out: Minimum Inhibitory Concentration (MIC).
Where [19] appears, read: PCI602, Klebsiella pneumoniae PCI 602, read-out: Minimum Inhibitory Concentration (MIC).
[20] abbreviates: Morganella morganii, Proteus morganii 1510, read-out: Minimum Inhibitory Concentration (MIC).
The mark [21] stands for this setting: GN346, Citrobacter freundii GN-346, read-out: Minimum Inhibitory Concentration (MIC).
The mark [22] stands for this setting: MB3833, Pseudomonas aeruginosa MB-3833, read-out: Minimum Inhibitory Concentration (MIC).
Setting [23] is: E2, Pseudomonas aeruginosa E-2, read-out: Minimum Inhibitory Concentration (MIC).
The mark [24] stands for this setting: Ps. aeruginosa (GN 10362) intraperitoneal infection, mice, single subcutaneous dose one hour after infection, 7 days, read-out: ED 50.
Setting [25] is: RPL11, Pseudomonas aeruginosa RPL-11, read-out: Minimum Inhibitory Concentration (MIC).

Molecules are shown by their SMILES. In brackets after ≈: the same amount, converted by molar mass. Where a name gives a salt, the structure may show the parent alone. Read-outs that look alike come from different tables or passages of the source.

For `CO[C@@]1(NC(=O)C(C(=O)O)c2ccc(O)cc2)C(=O)N2C(C(=O)O)=C(CSc3nnnn3C)CO[C@@H]21` (stereo partly drawn) [Latamoxef, reference compound], the MIC worked out at 3.13 µg/mL (≈ 6.01 µM) in [1] (setting [17]); 25 µg/mL (≈ 48 µM) in data set [2] (setting [18]); 0.1 µg/mL (≈ 0.192 µM) in data set [3]; 0.2 µg/mL (≈ 0.384 µM) in data set [4] (setting [19]); 0.05 µg/mL (≈ 0.0961 µM) in data set [5] (Salmonella typhimurium LT-2); 0.2 µg/mL (≈ 0.384 µM) in [6] (setting [20]). The figures for the MIC in data set [7] (setting [21]), in [8] (setting [22]) and in data set [9] (setting [23]) were 1.56 µg/mL (≈ 3 µM), 6.25 µg/mL (≈ 12 µM) and 6.25 µg/mL (≈ 12 µM), respectively. The figures for the ED50 in [10] and in [11] (setting [24]) were 0.67 mg/kg and 2.9 mg/kg, respectively.
As to `C[n+]1ccc(SCC2=C(C(=O)[O-])N3C(=O)C(NC(=O)C(=NOC(C)(C)C(=O)O)c4csc(N)n4)C3OC2)cc1` [Compound 14, (6R,7R)-7-((Z)-2-(2-Aminothiazole-4-yl)-2-(2-carboxyprop-2-oxyimino)acetamide-3-(1-methylpyridinium-4-yl-thiomethyl)-1-oxa-1-dethiaceph-3-em-4-carboxylate (Sodium Salt)], the MIC in [1] (setting [17]) was 1.56 µg/mL; in data set [2] (setting [18]) it was over 100 µg/mL; in data set [3] it was 0.1 µg/mL; in data set [12], 0.25 µg/mL; in data set [13] it was 128 µg/mL; in [4] (setting [19]), 0.1 µg/mL. The MIC in data set [5] (Salmonella typhimurium LT-2) was under 0.025 µg/mL; in data set [6] (setting [20]), 3.13 µg/mL; in [7] (setting [21]) it was 50 µg/mL; in data set [8] (setting [22]), 1.56 µg/mL; in data set [9] (setting [23]) it was 1.56 µg/mL; in data set [14] (setting [25]), 64 µg/mL. For the same compound, the concentration at 0.5 h in data set [15] amounted to 8800 ng/mL. Besides, the concentration at 0.25 h in data set [15] is 11500 ng/mL. The concentration at 5 min in data set [15] came to 18000 ng/mL. The concentration at 1 h in [15] is 5000 ng/mL. For the same compound, the ED50 in data set [10] was determined as 0.016 mg/kg; in data set [11] (setting [24]) it was 0.13 mg/kg. Besides, in data set [16], the “effectiveness against Pseudomonas aeruginosa” value is listed as “effective against Pseudomonas aeruginosa”.
On to `CC(C)(O/N=C(\C(=O)N[C@@H]1C(=O)N2C(C(=O)[O-])=C(C[n+]3ccccc3)CS[C@H]12)c1csc(N)n1)C(=O)O` [Ceftazidime, reference compound], for which the MIC worked out at 1.56 µg/mL (≈ 2.85 µM) in [1] (Staphylococcus aureus, 209PJC1, read-out: Minimum Inhibitory Concentration (MIC)); 50 µg/mL (≈ 91.5 µM) in data set [2] (ATCC8043, read-out: Minimum Inhibitory Concentration (MIC)); 0.1 µg/mL (≈ 0.183 µM) in data set [3]; 0.5 µg/mL (≈ 0.915 µM) in data set [12]; 64 µg/mL (≈ 117 µM) in [13]; 0.1 µg/mL (≈ 0.183 µM) in data set [4] (Klebsiella pneumoniae, PCI602, read-out: Minimum Inhibitory Concentration (MIC)). Moreover, the MIC came out at 0.05 µg/mL (≈ 0.0915 µM) in data set [5] (TYPHIMURIUM); 12.5 µg/mL (≈ 22.9 µM) in data set [6] (Morganella morganii, 1510, read-out: Minimum Inhibitory Concentration (MIC)); 25 µg/mL (≈ 45.7 µM) in [7] (Citrobacter freundii, GN346, read-out: Minimum Inhibitory Concentration (MIC)); 0.78 µg/mL (≈ 1.43 µM) in [8] (Pseudomonas aeruginosa, MB3833, read-out: Minimum Inhibitory Concentration (MIC)); 0.78 µg/mL (≈ 1.43 µM) in data set [9] (Pseudomonas aeruginosa, E2, read-out: Minimum Inhibitory Concentration (MIC)); 3 µg/mL (≈ 5.49 µM) in data set [14] (Pseudomonas aeruginosa, RPL11, read-out: Minimum Inhibitory Concentration (MIC)). In addition, in data set [15], the concentration at 0.5 h was found to be 11500 ng/mL. This compound also registered a concentration at 0.25 h in [15] of 20000 ng/mL. Further, the concentration at 5 min in data set [15] was determined as 13000 ng/mL. Moreover, the concentration at 1 h in [15] worked out at 6300 ng/mL. The compound further showed an ED50 in data set [11] of 0.22 mg/kg.
For `CC1OC2C(NC(=O)C(=NOC(C)(C)C(=O)O)c3csc(N)n3)C(=O)N2C(C(=O)[O-])=C1CSc1cc[n+](C)cc1` [Compound 1, (6R,7R)-7-((Z)-2-(2-Aminothiazole-4-yl)-2-(2-carboxyprop-2-oxyimino)acetamide)-(2S)-2-methyl-3-(1-methyl-pyridinium-4-ylthiomethyl)-1-oxa-1-oxa-1-dethiaceph-3-em-4-carboxylate (Sodium Salt)], the MIC in data set [1] (setting [17]) worked out at 1.56 µg/mL; in data set [2] (setting [18]), 50 µg/mL; in [3] it was 0.2 µg/mL; in data set [12] it was 0.5 µg/mL; in data set [13], 1 µg/mL; in [4] (setting [19]) it was 0.2 µg/mL. Further, the MIC in data set [5] (Salmonella typhimurium LT-2) amounted to 0.05 µg/mL; in data set [6] (setting [20]), 0.39 µg/mL; in data set [7] (setting [21]), 0.78 µg/mL; in data set [8] (setting [22]), 3.13 µg/mL; in data set [9] (setting [23]), 3.13 µg/mL; in data set [14] (setting [25]), 4 µg/mL. Besides, in data set [15], the concentration at 0.5 h came to 10600 ng/mL. Also, in data set [15], the concentration at 0.25 h turned out to be 18500 ng/mL. The compound further returned a concentration at 5 min in data set [15] of 14500 ng/mL. The concentration at 1 h in data set [15] amounted to 2200 ng/mL. For the same compound, the ED50 worked out at 0.028 mg/kg in data set [10] and 0.16 mg/kg in data set [11] (setting [24]). The “effectiveness against Pseudomonas aeruginosa” value in data set [16] is “effective against Pseudomonas aeruginosa”.
